biological target: human PAD4 (hPAD4) (Homo sapiens (Human), UniProt Q9UM07); test: RFMS Human PAD4 Functional Assay; format: biochemical; settings: rapid-fire mass spectrum (RFMS) assay; 5 nM hPAD4 enzyme, 250 μM BAEE, 30 min preincubation at 37° C.
Procedure: Compounds of the present invention were assayed as inhibitors of PAD4 using the assay protocol described below.
RFMS Human PAD4 Functional Assay:
Compounds were solubilized in 100% DMSO to achieve a10 mM compound concentration. Compound stock solutions were stored at RT. A series of dilutions were prepared in DMSO and mixed 8 times with 20 μL mixing volume. Final top concentration of compound in the assay is 50 μM. Final assay conditions were as follows: • Reaction volume: 26 μl • Assay buffer: 25 mM hepes, pH 7.5, 5 mM NaCl, 1 mM DTT, 0.2 mg/ml BSA, 0.01% CHAPS, 50 μM Calcium, and 5 μM TPEN • Final concentrations: 5 nM hPAD4 enzyme, 250 μM BAEE, and 0.5% DMSO • Total incubation time: 30 mins compound and enzyme preincubation at 37° C., 90 min enzyme/substrate reaction, 30 min reaction with phenyl glyoxal at 37° C. • Stop solution: 40 μl 5% TCA in ACN
0.13 μL of compound solution was added to 13 μL of 10 nM PAD4 in assay buffer. After 30 min 13 μl of 500 μM of BAEE was added in 25 mM hepes, pH 7.5, 5 mM NaCl, 1 mM DTT, 0.2 mg/ml BSA, 0.01% CHAPS, 50 μM Calcium, 5 μM TPEN was added and the reaction incubated for 90 min at 37° C. The enzymatic reaction was quenched by addition of 15 μl of 6.1N TCA, 100% Final Concentration is 20%, 35 μl of 8.5 mM phenyl glyoxal (final concentration 4 mM) is then added and the reaction is incubated for 30 min at 37° C.
After 30 minutes the plates are spun down to remove all precipitate. The enzyme reaction was quenched with an equal volume of methanol containing internal standard (modified citrulline). Samples were loaded onto the Rapid Fire RF300 system (Agilent) wherein they were first sipped for 1000 ms and then directly loaded to a C18 separations cartridge using a mixture of acetonitrile containing 0.01% formic acid for 3000 ms desalting. The flow rate of the mobile phase was 1.5 ml/min. Once the samples were eluted from the cartridge, a mobile phase of acetonitrile containing 0.01% formic acid was used to move the samples into the mass spectrometer for 4000 ms at a flow rate of 1.25 ml/min/Sciex API5500 triple quadrupole mass spectrometer (Applied Biosystems) equipped with ESI was used to analyze the peptidyl citrulline and internal standard ions.
MRM transition of product and internal standard were monitored at m/z 424.5 to 350.4 and m/z 293 to 247 respectively. The dwell time for each transition was set at 200 ms, and the ESI voltage was used at 5500 with a source temperature of 400° C. Extracted ion peaks for each transition were integrated using the Rapid Fire Integrator software. Peak area of analyte was normalized with internal standard.).

human PAD4 (hPAD4), sequence (Q9UM07 whole entry): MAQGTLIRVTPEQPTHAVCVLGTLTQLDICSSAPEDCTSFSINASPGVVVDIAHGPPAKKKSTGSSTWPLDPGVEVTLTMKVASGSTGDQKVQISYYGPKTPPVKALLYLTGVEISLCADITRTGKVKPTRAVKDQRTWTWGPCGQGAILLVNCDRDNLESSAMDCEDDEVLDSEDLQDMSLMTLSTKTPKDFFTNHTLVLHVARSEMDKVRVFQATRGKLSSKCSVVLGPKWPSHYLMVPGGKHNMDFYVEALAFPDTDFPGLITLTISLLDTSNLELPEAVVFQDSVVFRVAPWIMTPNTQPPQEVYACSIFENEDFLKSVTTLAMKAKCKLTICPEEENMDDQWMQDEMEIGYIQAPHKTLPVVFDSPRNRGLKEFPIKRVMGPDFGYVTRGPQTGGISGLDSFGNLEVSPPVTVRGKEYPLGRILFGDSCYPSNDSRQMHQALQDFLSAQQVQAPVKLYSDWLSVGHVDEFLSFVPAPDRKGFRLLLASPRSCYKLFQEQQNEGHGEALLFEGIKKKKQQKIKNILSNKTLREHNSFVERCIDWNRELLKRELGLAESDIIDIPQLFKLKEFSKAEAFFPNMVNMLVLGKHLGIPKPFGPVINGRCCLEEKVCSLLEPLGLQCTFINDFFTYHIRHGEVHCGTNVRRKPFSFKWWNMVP

Structure (SMILES) | IC50 [nM]
COc1cc(C(=O)N2C[C@H]3CC[C@@H]2[C@@H]3N)cc2nc(-c3cc4scc(-c5cc[nH]n5)c4n3CC3CC3)n(C)c12 [Example 40, ((1R,4R,7R)-7-amino-2-azabicyclo[2.2.1]heptan-2-yl)(2-(4-(cyclopropylmethyl)-3-(1H-pyrazol-3-yl)-4H-thieno[3,2-b]pyrrol-5-yl)-7-methoxy-1-methyl-1H-benzo[d]imidazol-5-yl)methanone] | 24
COc1cc(C(=O)N2C[C@H]3CC[C@@H]2[C@@H]3N)cc2nc(-c3cc4scc(-c5cnc(C#N)nc5)c4n3CC3CC3)n(C)c12 [Example 41, 5-(5-(5-((1R,4R,7R)-7-amino-2-azabicyclo[2.2.1]heptane-2-carbonyl)-7-methoxy-1-methyl-1H-benzo[d]imidazol-2-yl)-4-(cyclopropylmethyl)-4H-thieno[3,2-b]pyrrol-3-yl)pyrimidine-2-carbonitrile] | 140
COc1cc(C(=O)N2C[C@H]3CC[C@@H]2[C@@H]3N)cc2nc(-c3cc4scc(-c5cnn(CC(F)(F)F)c5)c4n3CC3CC3)n(C)c12 [Example 42, ((1R,4R,7R)-7-amino-2-azabicyclo[2.2.1]heptan-2-yl)(2-(4-(cyclopropylmethyl)-3-(1-(2,2,2-trifluoroethyl)-1H-pyrazol-4-yl)-4H-thieno[3,2-b]pyrrol-5-yl)-7-methoxy-1-methyl-1H-benzo[d]imidazol-5-yl)methanone] | 59
COc1cc(C(=O)N2C[C@H]3CC[C@@H]2[C@@H]3N)cc2nc(-c3cc4scc(-c5cnn(CC(F)F)c5)c4n3CC3CC3)n(C)c12 [Example 43, ((1R,4R,7R)-7-amino-2-azabicyclo[2.2.1]heptan-2-yl)(2-(4-(cyclopropylmethyl)-3-(1-(2,2-difluoroethyl)-1H-pyrazol-4-yl)-4H-thieno[3,2-b]pyrrol-5-yl)-7-methoxy-1-methyl-1H-benzo[d]imidazol-5-yl)methanone] | 51
COc1cc(C(=O)N2C[C@H]3CC[C@@H]2[C@@H]3N)cc2nc(-c3cc4scc(-c5cccn5C)c4n3CC3CC3)n(C)c12 [Example 44, ((1R,4R,7R)-7-amino-2-azabicyclo[2.2.1]heptan-2-yl)(2-(4-(cyclopropylmethyl)-3-(1-methyl-1H-pyrrol-2-yl)-4H-thieno[3,2-b]pyrrol-5-yl)-7-methoxy-1-methyl-1H-benzo[d]imidazol-5-yl)methanone] | 113
COc1cc(C(=O)N2C[C@H]3CC[C@@H]2[C@@H]3N)cc2nc(-c3cc4scc(-c5ccnn5C)c4n3CC3CC3)n(C)c12 [Example 45, ((1R,4R,7R)-7-amino-2-azabicyclo[2.2.1]heptan-2-yl)(2-(4-(cyclopropylmethyl)-3-(1-methyl-1H-pyrazol-5-yl)-4H-thieno[3,2-b]pyrrol-5-yl)-7-methoxy-1-methyl-1H-benzo[d]imidazol-5-yl)methanone] | 53
COc1cc(C(=O)N2C[C@H]3CC[C@@H]2[C@@H]3N)cc2nc(-c3cc4scc(-c5ccc[nH]5)c4n3CC3CC3)n(C)c12 [Example 46, ((1R,4R,7R)-7-amino-2-azabicyclo[2.2.1]heptan-2-yl)(2-(4-(cyclopropylmethyl)-3-(1H-pyrrol-2-yl)-4H-thieno[3,2-b]pyrrol-5-yl)-7-methoxy-1-methyl-1H-benzo[d]imidazol-5-yl)methanone] | 173
COc1cc(C(=O)N2C[C@H]3CC[C@@H]2[C@@H]3N)cc2nc(-c3cc4scc(-c5ccncc5)c4n3CC3CC3)n(C)c12 [Example 47, ((1R,4R,7R)-7-amino-2-azabicyclo[2.2.1]heptan-2-yl)(2-(4-(cyclopropylmethyl)-3-(pyridin-4-yl)-4H-thieno[3,2-b]pyrrol-5-yl)-7-methoxy-1-methyl-1H-benzo[d]imidazol-5-yl)methanone] | 147
COc1cc(C(=O)N2C[C@H]3CC[C@@H]2[C@@H]3N)cc2nc(-c3cc4scc(-c5cnn(C6CCOCC6)c5)c4n3CC3CC3)n(C)c12 [Example 48, ((1R,4R,7R)-7-amino-2-azabicyclo[2.2.1]heptan-2-yl)(2-(4-(cyclopropylmethyl)-3-(1-(tetrahydro-2H-pyran-4-yl)-1H-pyrazol-4-yl)-4H-thieno[3,2-b]pyrrol-5-yl)-7-methoxy-1-methyl-1H-benzo[d]imidazol-5-yl)methanone] | 29
COc1cc(C(=O)N2C[C@H]3CC[C@@H]2[C@@H]3N)cc2nc(-c3cc4scc(Nc5ccncc5)c4n3CC3CC3)n(C)c12 [Example 49, ((1R,4R,7R)-7-Amino-2-azabicyclo[2.2.1]heptan-2-yl)(2-(4-(cyclopropylmethyl)-3-(pyridin-4-ylamino)-4H-thieno[3,2-b]pyrrol-5-yl)-7-methoxy-1-methyl-1H-benzo[d]imidazol-5-yl)methanone] | 62

Source: US11981680B2, “Substituted thienopyrroles as PAD4 inhibitors” (BRISTOL-MYERS SQUIBB COMPANY, priority 2018, dated 2024)
